Source: US20140120087A1, “TRIAZOLOPYRIDINES” (BAYER INTELLECTUAL PROPERTY GMBH, priority 2011, published 2014)

How the values were obtained:
[1] = Hydrolytic stability assay at pH 2; format: physicochemical; settings: buffer pH 2, 37° C., compounds of the invention
Description: The hydrolytic stability assay investigates the stability of a compound in an aqueous buffer system. Standard solution stability assay is run in 0.05 M Phosphate buffer at pH 7.4 (pH of blood plasma) at 37° C. As compounds in the GI tract are exposed to a wide variety of pHs any relevant pH (as pH 2 to simulate the acidic condition of the GI tract in the following experiment) can be chosen. Compounds are incubated in relevant solution at 37° C. and analyzed by HPLC immediately after incubation and after 1, 2 and 24 hrs. Degradation rate (decay in %) is calculated by relating peak areas after 1, 2 and 24 hrs to the time zero injection.
Compound is available as 10 mM in DMSO (solution 1). 2.5 μL of solution 1 is dissolved in 1 mL acetonitrile leading to solution 2. Poorly soluble compounds may demand another dilution step of solution 2 (1:5 and 1:10 respectively) in Acetonitrile). Solution 2 is incubated at 37° C. in a tempered HPLC autosampler. 1 mL buffer pH 2 is transferred into an HPLC vial. 100 μL of solution 2 is added to the buffer pH 2 solution and mixed thoroughly. Immediately after mixing the combined solution is injected into the HPLC to give the time zero injection. Injections are repeated after 1, 2 and 24 hrs.
The degradation rate (decay in %) is calculated using HPLC software Millennium and Excel respectively.

Mps-1 kinase [2] = target: T1, Mps-1 kinase (Homo sapiens, UniProt P33981); assay: Mps-1 kinase assay with 2 mM ATP (TR-FRET)
T1 sequence (P33981 1-857): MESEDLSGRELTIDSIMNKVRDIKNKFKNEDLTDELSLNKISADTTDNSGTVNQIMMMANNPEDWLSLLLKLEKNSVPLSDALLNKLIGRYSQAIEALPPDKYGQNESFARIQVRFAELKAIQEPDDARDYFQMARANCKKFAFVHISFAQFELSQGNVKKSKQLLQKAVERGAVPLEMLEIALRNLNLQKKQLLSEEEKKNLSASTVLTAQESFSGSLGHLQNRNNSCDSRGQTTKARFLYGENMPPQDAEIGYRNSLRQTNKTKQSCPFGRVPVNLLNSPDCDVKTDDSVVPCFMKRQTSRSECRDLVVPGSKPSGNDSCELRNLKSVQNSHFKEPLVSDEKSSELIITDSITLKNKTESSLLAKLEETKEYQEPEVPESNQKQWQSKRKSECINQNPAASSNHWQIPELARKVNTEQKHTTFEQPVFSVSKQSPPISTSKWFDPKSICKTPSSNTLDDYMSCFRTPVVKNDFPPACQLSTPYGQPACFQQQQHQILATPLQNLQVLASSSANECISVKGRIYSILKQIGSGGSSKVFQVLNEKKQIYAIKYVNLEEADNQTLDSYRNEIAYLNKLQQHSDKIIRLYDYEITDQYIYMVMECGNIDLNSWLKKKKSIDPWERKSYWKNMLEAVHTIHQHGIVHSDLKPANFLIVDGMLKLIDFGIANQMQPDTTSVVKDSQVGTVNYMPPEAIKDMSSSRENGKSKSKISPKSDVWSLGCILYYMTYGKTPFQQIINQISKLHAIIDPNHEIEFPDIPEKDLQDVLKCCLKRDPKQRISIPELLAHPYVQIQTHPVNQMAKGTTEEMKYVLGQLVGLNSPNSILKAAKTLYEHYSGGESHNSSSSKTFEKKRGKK

Mps-1 kinase [3] = target: T1, Mps-1 kinase; assay: Mps-1 kinase assay with 10 μM ATP (TR-FRET)

| SMILES | Hydrolysis at pH 2; Decay in % after 24 h [1] | IC50 (Mps-1 kinase [2]) | IC50 (Mps-1 kinase [3]) |
| --- | --- | --- | --- |
| CCOCCNC(=O)c1ccc(Nc2nc3ccc(-c4ccc(NC(=O)Cc5ccc(F)cc5)cc4)cn3n2)c(OC)c1 [Example 01.7, N-(2-ethoxyethyl)-4-{[6-(4-{[(4-fluorophenyl)acetyl]amino}phenyl)[1,2,4]-triazolo[1,5-α]pyridin-2-yl]amino}-3-methoxybenzamide] | <10% | ≤ 1 nM | ≤ 1 nM |
| CC(C)(C)NC(=O)c1ccc(Nc2nc3ccc(-c4ccc(NC(=O)Cc5ccc(F)cc5)cc4)cn3n2)c(OCC(F)(F)F)c1 [Example 01.21, N-tert-butyl-4-{[6-(4-{[(4-fluorophenyl)acetyl]amino}phenyl)[1,2,4]-triazolo[1,5-α]pyridin-2-yl]amino}-3-(2,2,2-trifluoroethoxy)benzamide] | <10% | ≤ 1 nM | ≤ 1 nM |
| Cc1cc(N(C)C)ccc1Nc1nc2ccc(-c3ccc(C(=O)NCc4ccc(F)cc4)cc3)cn2n1 [Example 02.24, 4-(2-{[4-(dimethylamino)-2-methylphenyl]amino}[1,2,4]triazolo[1,5-α]-pyridin-6-yl)-N-(4-fluorobenzyl)benzamide] | <10% | 5.9 nM | ≤ 1 nM |
| COc1cc(C(=O)NC(C)(C)C)ccc1Nc1nc2ccc(-c3ccc(C(=O)NCc4ccc(F)cc4)cc3)cn2n1 [Example 02.14, N-tert-butyl-4-[(6-{4-[(4-fluorobenzyl)carbamoyl]phenyl}[1,2,4]triazolo-[1,5-α]pyridin-2-yl)amino]-3-methoxybenzamide] | <10% | 2.4 nM | ≤ 1 nM |
| COc1cc(C(=O)NC(C)(C)CO)ccc1Nc1nc2ccc(-c3ccc(C(=O)NCc4ccc(F)cc4)cc3)cn2n1 [Example 02.8, 4-[(6-{4-[(4-fluorobenzyl)carbamoyl]phenyl}[1,2,4]triazolo[1,5-α]pyridin-2-yl)amino]-N-(1-hydroxy-2-methylpropan-2-yl)-3-methoxybenzamide] | <10% | 1.5 nM | ≤ 1 nM |
| COc1cc(C(=O)N(C)CCN(C)C(C)=O)ccc1Nc1nc2ccc(-c3ccc(NC(=O)Cc4ccc(F)cc4)cc3)cn2n1 [Example 01.14, N-{2-[acetyl(methyl)amino]ethyl}-4-{[6-(4-{[(4-fluorophenyl)acetyl]amino}-phenyl)[1,2,4]triazolo[1,5-α]pyridin-2-yl]amino}-3-methoxy-N-methylbenzamide] | <10% | ≤ 1 nM | ≤ 1 nM |
| CNCCN(C)C(=O)c1ccc(Nc2nc3ccc(-c4ccc(C(=O)NCc5ccc(F)cc5)cc4)cn3n2)c(OC)c1 [Example 02.11, 4-[(6-{4-[(4-fluorobenzyl)carbamoyl]phenyl}[1,2,4]triazolo[1,5-α]pyridin-2-yl)amino]-3-methoxy-N-methyl-N-[2-(methylamino)ethyl]benzamide] | <10% | ≤ 1 nM | ≤ 1 nM |
| CCOCCNC(=O)c1ccc(Nc2nc3ccc(-c4ccc(C(=O)NCc5ccc(F)cc5)cc4)cn3n2)c(OC)c1 [Example 02.10, N-(2-ethoxyethyl)-4-[(6-{4-[(4-fluorobenzyl)carbamoyl]phenyl}[1,2,4]-triazolo[1,5-α]pyridin-2-yl)amino]-3-methoxybenzamide] | <10% | 2.3 nM | ≤ 1 nM |
| CCNC(=O)c1ccc(Nc2nc3ccc(-c4ccc(NC(=O)Cc5ccc(F)cc5)cc4)cn3n2)c(OC)c1 [Example 01.4, N-ethyl-4-{[6-(4-{[(4-fluorophenyl)acetyl]amino}phenyl)[1,2,4]triazolo[1,5-α]pyridin-2-yl]amino}-3-methoxybenzamide] | <10% | ≤ 1 nM | ≤ 1 nM |
| COc1ccc(Nc2nc3ccc(-c4ccc(C(=O)NCc5ccc(F)cc5)cc4)cn3n2)c(OC)c1 [Example 02.16, 4-{2-[(2,4-dimethoxyphenyl)amino][1,2,4]triazolo[1,5-α]pyridin-6-yl}-N-(4-fluorobenzyl)benzamide] | <10% | 3.8 nM | ≤ 1 nM |
| COc1cc(C(=O)NCC(C)(C)O)ccc1Nc1nc2ccc(-c3ccc(NC(=O)Cc4ccc(F)cc4)cc3)cn2n1 [Example 01.12, 4-{[6-(4-{[(4-fluorophenyl)acetyl]amino}phenyl)[1,2,4]triazolo[1,5-α]-pyridin-2-yl]amino}-N-(2-hydroxy-2-methylpropyl)-3-methoxybenzamide] | <10% | ≤ 1 nM | ≤ 1 nM |
| COc1cc(C(=O)NC(C)(C)C)ccc1Nc1nc2ccc(-c3ccc(NC(=O)Cc4ccc(F)cc4)cc3)cn2n1 [Example 01.5, N-tert-butyl-4-{[6-(4-{[(4-fluorophenyl)acetyl]amino}phenyl)[1,2,4]-triazolo[1,5-α]pyridin-2-yl]amino}-3-methoxybenzamide] | <10% | ≤ 1 nM | ≤ 1 nM |
| COc1cc(C(=O)NCCO)ccc1Nc1nc2ccc(-c3ccc(NC(=O)Cc4ccc(F)cc4)cc3)cn2n1 [Example 01.6, 4-{[6-(4-{[(4-fluorophenyl)acetyl]amino}phenyl)[1,2,4]triazolo[1,5-α]-pyridin-2-yl]amino}-N-(2-hydroxyethyl)-3-methoxybenzamide] | <10% | ≤ 1 nM | ≤ 1 nM |
| CCOc1cc(C(=O)N(CC)CCOC)ccc1Nc1nc2ccc(-c3ccc(NC(=O)Cc4ccc(F)cc4)cc3)cn2n1 [Example 01.18, 3-ethoxy-N-ethyl-4-{[6-(4-{[(4-fluorophenyl)acetyl]amino}phenyl)[1,2,4]-triazolo[1,5-α]pyridin-2-yl]amino}-N-(2-methoxyethyl)benzamide] | <10% | ≤ 1 nM | ≤ 1 nM |
| CCOc1cc(C(=O)NCC(C)(C)O)ccc1Nc1nc2ccc(-c3ccc(C(=O)NCc4ccc(F)cc4)cc3)cn2n1 [Example 02.7, 3-ethoxy-4-[(6-{4-[(4-fluorobenzyl)carbamoyl]phenyl}[1,2,4]triazolo[1,5-α]pyridin-2-yl)amino]-N-(2-hydroxy-2-methylpropyl)benzamide] | <10% | ≤ 1 nM | ≤ 1 nM |
| CCN(CC)C(=O)c1ccc(Nc2nc3ccc(-c4ccc(NC(=O)Cc5ccc(F)cc5)cc4)cn3n2)c(OC)c1 [Example 01.1, N,N-diethyl-4-{[6-(4-{[(4-fluorophenyl)acetyl]amino}phenyl)[1,2,4]-triazolo[1,5-α]pyridin-2-yl]amino}-3-methoxybenzamide] | <10% | 1.2 nM | ≤ 1 nM |
| CCOc1cc(F)ccc1Nc1nc2ccc(-c3ccc(NC(=O)Cc4ccc(F)cc4)cc3)cn2n1 [Example 01.3, N-(4-{2-[(2-ethoxy-4-fluorophenyl)amino][1,2,4]triazolo[1,5-α]pyridin-6-yl}phenyl)-2-(4-fluorophenyl)acetamide] | <10% | 1.1 nM | ≤ 1 nM |
| COc1cc(C(=O)NC(C)(C)CO)ccc1Nc1nc2ccc(-c3ccc(C(=O)NCc4ccc(F)cc4)c(OC)c3)cn2n1 [Example 08.1, N-(4-fluorobenzyl)-4-[2-({4-[(1-hydroxy-2-methylpropan-2-yl)carbamoyl]-2-methoxyphenyl}amino)[1,2,4]triazolo[1,5-α]pyridin-6-yl]-2-methoxybenz-amide] | <10% | 4.3 nM | ≤ 1 nM |
